# According to US9840470B2, “Targeting GLI proteins in human cancer by small molecules” (The Regents of the University of California, priority 2013, dated 2017):
# How the values were obtained:
# melanoma MelJuso = test: In vivo efficacy, mouse xenograft model (melanoma MelJuso); details: for tumor growth: 50 mg/kg body weight i.p. daily for 14 days, from 13 days after inoculation; for tumor weight (FIG. 1): melanoma MelJuso xenograft, after treatment
# Description: (§1) The administered compounds were tested in vivo in the mouse xenograft model bearing human cancer cells. Briefly, female athymic nude mice strain NCRNU-M (5-10 weeks old, 20-25 grams in weight; Taconic, Germantown, N.Y.) was maintained in pathogen-free conditions. Three human cancer cell lines: NSCLC A549, melanoma MelJuso, and mesothelioma MS-1 were used. Five or ten mice were used in each group and injected s.c. with 3×10^6 cancer cells in the dorsal area in a volume of 100 μl. After inoculation, human cancer cells were allowed to grow in mice for 10-13 days to become visible tumor nodules. Animals were then injected with a compound of the embodiments at a dose of 50 mg/kg body weight (1 mg/mouse per day). Vehicle alone was used as control. The compounds and controls were adjusted in 40 ul volume for i.p. injection in the abdomens of the mice. Injections were performed daily around the same time for 14 days. Tumors were allowed to grow for 1-2 additional weeks after completion of the compound treatments. Tumor size was measured every three to four days, and tumor volumes were calculated using width (x) and length (y) (x^2y/2, where x<y). Throughout this period, general toxicity of the treatments was also monitored by measuring body weight of the mice. Data was presented as mean values (±S.D.).
# In vivo efficacy study of Compounds 1, 2, 4, and 6 were performed using a Mouse Xenograft Model (Melanoma MelJuso). Mice were injected s.c. with 3×10^6 cells in the dorsal area in a volume of 100 μl. 13 days after inoculation, the mice started receiving treatments with the administered compound at a dose of 50 mg/kg body weight daily for 14 days (n=10). Vehicle alone was used as control (n=10). The administered compounds and vehicle were adjusted in a volume of 40 μl for i.p. injection in the abdomens of the mice. Tumor size and tumor volumes were calculated as described above.
# [1] = tested on: Hedgehog signaling pathway; test: Quantitative RT-PCR of Hh pathway genes in xenograft tumors; assay type: in vivo, mouse; details: Melanoma tumor (MelJuso), pooled tumor from two mice
# Description: (§2) Total RNA was isolated using Qiagen RNeasy Mini Kit (Valencia, Calif.). Hybridization probes and primers (Table 1) were purchased from Applied Biosystems (ABI, Foster City, Calif.). cDNA synthesis and Taqman® PCR were performed according to the manufactures' protocols. The gene expression was assayed in triplicate in ABI 7300 Real-time PCR System. Samples were normalized to their housekeeping gene GAPDH and then calculated by using 2^−dct method.
# To examine whether Compounds 1, 2, 4, and 6 suppressed tumor growth through inhibition of the Hedgehog signaling pathway in vivo, expression of the key components and direct target genes of the Hh pathway (e.g. Gli1, Gli2, Gli3, HHIP and Cyclin D1) were analyzed by quantitative real-time RT-PCR using total RNA isolated from the xenograft tumors. GAPDH served as a control. This RT-PCR analysis was performed using a “pooled” tumor from two randomly selected mice of each group with reasonable size tumors. […] The results are shown in FIG. 4, where C is control and V is vehicle.
# [2] = Preliminary in vivo toxicity: leukocyte population and body weight after treatment; design: species or system mouse; details: for changes of leukocyte population: at completion of the in vivo studies; for loss of body weight: during the course of drug administration
# Description: as §1
# (§3) After the in vivo studies were completed, different organs were resected from mice. These organs included liver, lung, heart, kidney, intestines, ovary, brain, spleen, skin, and muscle. The specimens were fixed in 4% buffered formaldehyde, embedded in paraffin, sectioned, and histologically analyzed by hematoxylin and eosin (HE) staining. The HE stained slides were examined by a mouse pathologist for toxicity evidence from all the organs as compared with vehicle controls. In addition, leukocytes (WBC: white blood cell, NE: neutrophil, LY: lymphocyte, MO: monocyte, EO: eosinophil, BA: basophil) from each animal from all treatment groups were collected and leukocyte population was counted through a blood cell counter.
# (§4) As preliminary in vivo toxicity study of Compounds 1, 2, 4, and 6, it was examined if there were changes of leukocyte population and loss of body weight in the mice after the treatment. At the completion of the in vivo studies as described herein, leukocytes (WBC: white blood cell, NE: neutrophil, LY: lymphocyte, MO: monocyte, EO: eosinophil, BA: basophil) from each animal from all treatment groups were collected and leukocyte population was counted through a blood cell counter. Body weights of control groups (n=10) and the treated group (n=10) were measured using a scale during the course of drug administration. […] In an additional toxicity study, effect of different doses of compounds 4 and 6 on the body weight of mice was examined. The compounds were i.p. injected in the abdomens at 3 different doses: 25, 50, and 100 mg/kg body weight to mice (3 mice per dosing group) for 6 consecutive days.
# [3] = Additional toxicity study: body weight at different doses; assay type: in vivo, mouse; details: i.p. 25, 50, and 100 mg/kg body weight for 6 consecutive days
# Description: Each dosing group contained 3 mice. The body weight of mice was measured using a scale. Results are the means±SD (error bars).
# as §4
# [4] = Histological (H&E) examination of mouse organs for toxicity; assay type: in vivo; details: i.p. two doses daily for 6 days; liver, spleen, kidney, heart
# Excerpt: as §3
# To analyze toxicity of the Compounds 1, 2, 4, and 6 in vivo, each group (three mice) was i.p. injected with two doses of each Compound daily for 6 days, and then major mouse organs, such as liver, spleen, kidney, and heart were resected from the mice.
# human NSCLC cell lines = test: Combination treatment with chemotherapies, MTS proliferation assay, lung cancer cells; assay type: cell-based; details: 72 hours, Combination Index
# Excerpt: (§5) Another assay for determining the number of viable cells in proliferation or cytotoxicity assays is the MTS assay, a colorimetric method. MTS assay reagents are commercially available (Promega Corp., Madison, Wis.). The reagent contains a tetrazolium compound [3-(4,5-dimethylthiazol-2-yl)-5-(3-carboxymethoxyphenyl)-2-(4-sulfophenyl)-2H-tetrazolium, inner salt; MTS] and an electron coupling reagent (phenazine ethosulfate; PES). PES has enhanced chemical stability, which allows it to be combined with MTS to form a stable solution. The MTS tetrazolium compound (Owen's reagent) is bioreduced by cells into a colored formazan product that is soluble in tissue culture medium. This conversion may be accomplished by NADPH or NADH produced by dehydrogenase enzymes in metabolically active cells. The quantity of formazan product as measured by the absorbance at 490 nm is directly proportional to the number of living cells in culture. Because the MTS formazan product is soluble in tissue culture medium, this assay requires fewer steps than procedures that use tetrazolium compounds such as MTT. The formazan product of MTT reduction is a crystalline precipitate that requires an additional step in the procedure to dissolve the crystals before recording absorbance readings at 570 nm.
# (§6) Combination treatments of the Compounds with several chemotherapies: erlotinib (Tarceva®), PI3K inhibitor LY294002, TGFβ inhibitor SB431542, and pemetrexed (Alimta®) were performed in human NSCLC and MM cell lines (FIGS. 12-17). In all experiments, NSCLC and MM cell lines were treated with different doses of each compound or combination for 72 hours, and MTS assays were performed to determine the cell proliferations. Combination Index (CI), calculated by CalcuSyn software (Biosoft, Cambridge, UK), was applied to describe the effect of the combination effects of two compounds, where CI<1 indicates Synergism, CI=1 indicates Additive effects, and CI>1 indicates Antagonism. Student's t-tests were applied for statistical analysis.
# [5] = tested on: human MM cell lines (mesothelioma cells); test: Combination treatment with chemotherapies, MTS proliferation assay, mesothelioma cells; assay type: cell-based; details: 72 hours, Combination Index
# Excerpt: as §5, §6
# Wnt signaling pathway = test: Quantitative RT-PCR of canonical Wnt pathway genes in xenograft tumors; assay type: in vivo, mouse; details: Melanoma tumor, pooled tumor from two mice, compared to controls
# Description: as §2
# To examine whether Compounds 1, 2, 4, and 6 suppressed tumor growth through inhibition of the Wnt signaling pathway in vivo, expression of the key components and direct target genes of the Wnt pathway (e.g. Wnt2, Axin2, EGFR, and Cyclin D1) were analyzed by quantitative real-time RT-PCR using total RNA isolated from the xenograft tumors. GAPDH served as a control. This RT-PCR analysis was performed using a “pooled” tumor from two randomly selected mice of each group with reasonable size tumors. […] The results are shown in FIG. 4, where C is control and V is vehicle.
# mesothelioma MS-1 = test: In vivo efficacy, mouse xenograft model (mesothelioma MS-1); details: 50 mg/kg body weight i.p. daily for 14 days, from ten days after inoculation
# Description: as §1, with “Tumors were allowed to grow for 1-2 additional weeks after completion of the compound treatments.” left out, “Data was presented as mean values (±S.D.).” left out
# In vivo efficacy study of Compounds 1 and 4 were performed using a Mouse Xenograft Model (Mesothelioma MS-1). […] Tumor sizes was measured twice weekly until the completion of the experiments. […]
# NSCLC A549 = test: In vivo efficacy, mouse xenograft model (lung cancer A549); details: 50 mg/kg i.p. daily for 14 days, then 50 mg/kg daily for 1x7 days; tumors weighed 43 days after inoculation
# Description: as §1, with “Tumors were allowed to grow for 1-2 additional weeks after completion of the compound treatments.” left out, “Data was presented as mean values (±S.D.).” left out
# In vivo efficacy study of Compounds 1 and 4 in Mouse Xenograft Model (NSCLC A549) was examined. […] 43 days after the initial tumor inoculation, tumors were dissected from the mice of each group and their weights were measured using a scale. […]
Structure (SMILES),tumor growth (melanoma MelJuso),tumor weight (FIG. 1) (melanoma MelJuso),"Hh signaling (expression of Gli1, Gli2, Gli3, HHIP, Cyclin D1) [1]",changes of leukocyte population [2],loss of body weight [2],loss of body weight [3],toxicity in organs (H&E histology) [4],combination effect with PI3K inhibitor LY294002 (human NSCLC cell lines),combination effect with TGFβ inhibitor SB431542 (human NSCLC cell lines),combination effect with PI3K inhibitor LY294002 [5],combination effect with pemetrexed (Alimta) [5],expression of the key indicator of the canonical Wnt activation (Wnt signaling pathway),tumor weight compared to the control group (mesothelioma MS-1),tumor weight compared to the control group (NSCLC A549),combination effect with erlotinib (Tarceva) (human NSCLC cell lines),combination effect with erlotinib (Tarceva) [5]
"CC(C)(CO)CCCNC(=O)C1C(c2ccc(F)cc2)=NN(c2ccccc2)C1c1cccc(F)c1 (stereo not drawn) [Compound 6, 3-(4-fluoro-phenyl)-5-(3-fluoro-phenyl)-1-phenyl-4,5-dihydro-1H-pyrazole-4-carboxylic acid (5-hydroxy-4,4-dimethyl-pentyl)-amide]",dramatically suppressed,significantly decreased,inhibited,No noticeable changes of leukocyte population,No noticeable changes of leukocyte population or loss of the body weight,no noticeable loss of the body weight,No noticeable toxicity,synergy,synergy,synergy,synergy,,,,,
"O=C(NCc1ccc(O)cc1)C1C(c2ccccc2)=NN(c2ccccc2)C1c1ccccc1 (stereo not drawn) [Compound 2, 1,3,5-triphenyl-4,5-dihydro-1H-pyrazole-4-carboxylic acid 4-hydroxy-benzylamide]",dramatically suppressed,significantly decreased,inhibited,No noticeable changes of leukocyte population,No noticeable changes of leukocyte population or loss of the body weight,,No noticeable toxicity,,,,,significantly down-regulated,,,,
"CCCC1C(C(=O)NCCCC(C)(C)CO)C(c2ccc(F)cc2)=NN1c1ccccc1 (stereo not drawn) [Compound 4, 3-(4-fluoro-phenyl)-1-phenyl-5-propyl-4,5-dihydro-1H-pyrazole-4-carboxylic acid (5-hydroxy-4,4-dimethyl-pentyl)-amide]",dramatically suppressed,significantly decreased,inhibited,No noticeable changes of leukocyte population,No noticeable changes of leukocyte population or loss of the body weight,no noticeable loss of the body weight,No noticeable toxicity,,,,,significantly down-regulated,decreased,decreased,synergy,synergy
"CC(C)(CO)CCCNC(=O)C1C(c2ccccc2)=NN(c2ccccc2)C1c1ccsc1 (stereo not drawn) [Compound 1, 1,3-diphenyl-5-thiophen-3-yl-4,5-dihydro-1H-pyrazole-4-carboxylic acid (5-hydroxy-4,4-dimethyl-pentyl)-amide]",dramatically suppressed,significantly decreased,inhibited,No noticeable changes of leukocyte population,No noticeable changes of leukocyte population or loss of the body weight,,No noticeable toxicity,,,,,significantly down-regulated,decreased,decreased,,
